Reference: patent US20220386606A1, “SPECIFICALLY SUBSTITUTED 3-PHENYL-5-SPIROCYCLOPENTYL-3-PYRROLIN-2-ONES AND THEIR USE AS HERBICIDES” (Bayer Aktiengesellschaft, priority 2019, published 2022)

Columns and labels:
DIGSA [1] = assay: Post-emergence herbicidal action against DIGSA; format: in vivo, Digitaria sanguinalis; conditions: 80 g/ha, visual assessment about 3 weeks after treatment vs untreated controls
Procedure: (§1) Seeds of monocotyledonous and dicotyledonous weed and crop plants are laid out in sandy loam soil in wood-fiber pots, covered with soil and cultivated in a greenhouse under good growth conditions. 2 to 3 weeks after sowing, the test plants are treated at the one-leaf stage. The compounds of the invention, formulated in the form of wettable powders (WP) or as emulsion concentrates (EC), are then sprayed onto the green parts of the plants as aqueous suspension or emulsion at a water application rate equating to 600 to 800 l/ha with addition of 0.2% wetting agent. After the test plants have been left to stand in the greenhouse under optimal growth conditions for about 3 weeks, the action of the preparations is assessed visually in comparison to untreated controls (herbicidal action in percent (%): 100% activity=the plants have died, 0% activity=like control plants).

LOLRI [2] = assay: Pre-emergence herbicidal action against LOLRI (Table 8, titled post-emergence at 320 g/ha); format: in vivo, Lolium rigidum; conditions: table stands in the pre-emergence section
Description: (§2) Seeds of monocotyledonous and dicotyledonous weed plants and crop plants are laid out in sandy loam soil in wood-fiber pots and covered with soil. The compounds of the invention, formulated in the form of wettable powders (WP) or as emulsion concentrates (EC), are then applied to the surface of the covering soil as aqueous suspension or emulsion at a water application rate equating to 600 to 800 L/ha with addition of 0.2% wetting agent.
(§3) After the treatment, the pots are placed in a greenhouse and kept under good growth conditions for the trial plants. The damage to the test plants is scored visually after a test period of 3 weeks by comparison with untreated controls (herbicidal activity in percent (%): 100% activity=the plants have died, 0% activity=like control plants).

DIGSA [3] = assay: Pre-emergence herbicidal action against DIGSA; format: in vivo, Digitaria sanguinalis; conditions: 320 g/ha, scored visually after 3 weeks vs untreated controls
Description: as §2, §3

LOLRI [4] = assay: Post-emergence herbicidal action against LOLRI; format: in vivo, Lolium rigidum; conditions: 80 g/ha, visual assessment about 3 weeks after treatment vs untreated controls
Procedure: as §1

AVEFA [5] = assay: Pre-emergence herbicidal action against AVEFA; format: in vivo, Avena fatua; conditions: 320 g/ha, scored visually after 3 weeks vs untreated controls
Description: as §2, §3

ECHCG [6] = assay: Pre-emergence herbicidal action against ECHCG; format: in vivo, Echinochloa crus-galli; conditions: 320 g/ha, scored visually after 3 weeks vs untreated controls
Description: as §2, §3

VIOTR = assay: Pre-emergence herbicidal action against VIOTR; format: in vivo, Viola tricolor; conditions: 320 g/ha
Description: as §2, §3

ECHCG [7] = assay: Post-emergence herbicidal action against ECHCG; format: in vivo, Echinochloa crus-galli; conditions: 80 g/ha, visual assessment about 3 weeks after treatment vs untreated controls
Procedure: as §1

SETVI [8] = assay: Pre-emergence herbicidal action against SETVI; format: in vivo, Setaria viridis; conditions: 320 g/ha, scored visually after 3 weeks vs untreated controls
Description: as §2, §3

ALOMY [9] = assay: Pre-emergence herbicidal action against ALOMY; format: in vivo, Alopecurus myosuroides; conditions: 320 g/ha, scored visually after 3 weeks vs untreated controls
Description: as §2, §3

SETVI [10] = assay: Post-emergence herbicidal action against SETVI; format: in vivo, Setaria viridis; conditions: 80 g/ha, visual assessment about 3 weeks after treatment vs untreated controls
Procedure: as §1

VERPE = assay: Pre-emergence herbicidal action against VERPE; format: in vivo, Veronica persica; conditions: 320 g/ha
Description: as §2, §3

AVEFA [11] = assay: Post-emergence herbicidal action against AVEFA; format: in vivo, Avena fatua; conditions: 80 g/ha, visual assessment after about 3 weeks
Procedure: as §1

ALOMY [12] = assay: Post-emergence herbicidal action against ALOMY; format: in vivo, Alopecurus myosuroides; conditions: 80 g/ha, visual assessment after about 3 weeks
Procedure: as §1

AMARE = assay: Pre-emergence herbicidal action against AMARE; format: in vivo, Amaranthus retroflexus; conditions: 320 g/ha
Description: as §2, §3

Row | SMILES | Post-emergence action against DIGSA in % (DIGSA [1]) [%] | Pre-emergence herbicidal action against LOLRI in % (LOLRI [2]) [%] | Pre-emergence action against DIGSA in % (DIGSA [3]) [%] | Post-emergence action against LOLRI in % (LOLRI [4]) [%] | Pre-emergence action against AVEFA in % (AVEFA [5]) [%] | Pre-emergence action against ECHCG in % (ECHCG [6]) [%] | Pre-emergence action against VIOTR in % (VIOTR) [%] | Post-emergence action against ECHCG in % (ECHCG [7]) [%] | Pre-emergence action against SETVI in % (SETVI [8]) [%] | Pre-emergence action against ALOMY in % (ALOMY [9]) [%] | Post-emergence action against SETVI in % (SETVI [10]) [%] | Pre-emergence action against VERPE in % (VERPE) [%] | Post-emergence action against AVEFA in % (AVEFA [11]) [%] | Post-emergence action against ALOMY in % (ALOMY [12]) [%] | Pre-emergence action against AMARE in % (AMARE) [%]
1 | CC#Cc1cc(C)c(C2=C(OC(=O)OCC)C3(CCC(COCC)C3)NC2=O)c(OC)c1 (stereo not shown) [Example P-48] | 100 | 100 | 100 | 100 | 100 | 100 | 100 | 100 | 100 | 100 | 100 | 80 | 90 | 100 | 
2 | CC#Cc1cc(C)c(C2=C(OC(=O)C(C)C)C3(CCC(COC)C3)NC2=O)c(F)c1 (stereo not shown) [Example P-57] | 100 | 100 | 100 | 100 | 80 | 100 | 100 | 100 | 100 | 100 | 100 |  | 90 | 100 | 80
3 | CC#Cc1cc(F)c(C2=C(OC(=O)OCC)C3(CCC(COCC)C3)NC2=O)c(OC)c1 (stereo not shown) [Example P-69] | 80 | 100 | 100 | 90 | 80 | 100 | 80 | 100 | 100 | 100 | 100 | 90 | 90 | 100 | 
4 | C=CCOCC1CCC2(C1)NC(=O)C(c1c(F)cc(C#CC)cc1OC)=C2OC(=O)OCC (stereo not shown) [Example P-77] | 80 | 100 | 100 |  | 90 | 100 | 100 | 100 | 100 | 100 | 100 | 80 |  | 90 | 
5 | CC#Cc1cc(C)c(C2=C(OC(=O)OCC)C3(CCC(COCCC)C3)NC2=O)c(OC)c1 (stereo not shown) [Example P-83] | 100 | 100 | 100 | 100 | 80 | 100 | 90 | 100 | 100 | 100 | 100 | 80 | 90 | 100 | 
6 | C=CCOCC1CCC2(C1)NC(=O)C(c1c(C)cc(C#CC)cc1Br)=C2OC(=O)OCC (stereo not shown) [Example P-85] | 90 | 100 | 100 | 90 | 80 | 100 | 100 | 100 | 100 | 100 | 100 | 90 |  | 80 | 
7 | C#CCOCC1CCC2(C1)NC(=O)C(c1c(F)cc(C#CC)cc1OC)=C2OC(=O)OCC (stereo not shown) [Example P-102] | 90 | 100 | 100 | 90 | 80 | 100 |  | 80 | 100 | 100 | 90 |  | 80 | 90 | 90
